Assay results taken from article PMC11807261 (ACS infectious diseases, 2022).

System: GDI-KD-9, the Mtb H37Ra-derived glnA1 knockdown mutant
Format: cell-based, Mycobacterium tuberculosis

Structure (SMILES)	GIC shift (times more sensitive)	GIC shift caused by the reduction of glnA1 expression	level at which growth inhibition saturates [% full scale]	growth inhibition at high concentrations
COc1ccc2cc(-c3nc(C(C)(C)C)[nH]c3-c3ccnc(N)c3)ccc2c1 [11a]	3.6 times	3- to 4 fold	20	
CS(=N)(=O)CCC(N)C(=O)O [MSO, L-methionine S-sulfoximine]		16 fold		inhibits the growth completely
C[C@]1(O)C[C@@H](c2nc(-c3ccc4ccc(-c5ccccc5)nc4c3)c3c(N)nccn32)C1 [LIN, linsitinib]			20	
CO[C@H]1/C=C/O[C@@]2(C)Oc3c(C)c(O)c4c(O)c(c(/C=N/N5CCN(C)CC5)c(O)c4c3C2=O)NC(=O)/C(C)=C\C=C\[C@H](C)[C@H](O)[C@@H](C)[C@@H](O)[C@@H](C)[C@H](OC(C)=O)[C@@H]1C [RIF, rifampicin]	did not show any GIC shift	remained susceptible		
